Results on 3 compounds are retold here after US10683334B2 (INDIANA UNIVERSITY RESEARCH AND TECHNOLOGY CORPORATION, priority 2016, dated 2020).

Square brackets hold non-standard residues; d marks the D form. Peptide text beside a SMILES is read from it. Aib = CC(C)(N)C(=O)O

The target in one data set is hGLP-1R (Homo sapiens, UniProt P43220). The data set can be described thus: cAMP luciferase reporter assay, activity at the GLP-1 receptor (Table 3). (In a reporter assay the amount or activity of a reporter protein is the signal.)
Another data set can be described thus: physchem. The note with it: pH 7.4. As for the experimental part:
1 or 5 mg of pre-lyophilized peptide in 2 mL Eppendorf tube was treated with 200-400 uL of phosphate buffer (PBS: 50 mM sodium phosphate, 150 mM of sodium chloride, pH7.4). Samples were then vortexed and sonicated for 10 min then equilibrated at RT for 1H, and then centrifuged at 10 krpms for 10 min Concentration of the peptides in obtained supernatant was determined by measuring UV absorbance at λ=280 nm. […] Concentration in aliquots was reassessed as previously with UV absorbance. Change in peptide concentration was evaluated after 48 h and 7 days of storage at 4° C.

Another data set concerns the target glucagon receptor (Homo sapiens, UniProt P47871). The data set is described as follows: Luciferase-based glucagon assay (cAMP reporter, HEK293 cells).

Chain of hGLP-1R (P43220 24-463): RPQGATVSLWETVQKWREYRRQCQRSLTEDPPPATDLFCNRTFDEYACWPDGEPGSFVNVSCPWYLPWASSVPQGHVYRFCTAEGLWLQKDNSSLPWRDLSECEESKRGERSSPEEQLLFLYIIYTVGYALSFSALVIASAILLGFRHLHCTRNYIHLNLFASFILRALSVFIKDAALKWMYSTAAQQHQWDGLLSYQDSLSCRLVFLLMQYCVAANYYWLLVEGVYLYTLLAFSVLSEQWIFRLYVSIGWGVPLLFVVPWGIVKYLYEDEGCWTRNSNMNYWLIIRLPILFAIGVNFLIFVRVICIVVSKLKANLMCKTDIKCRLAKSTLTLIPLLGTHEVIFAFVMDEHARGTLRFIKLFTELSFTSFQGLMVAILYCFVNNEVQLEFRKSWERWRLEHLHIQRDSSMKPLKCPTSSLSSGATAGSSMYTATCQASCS
Chain of glucagon receptor (P47871 26-477): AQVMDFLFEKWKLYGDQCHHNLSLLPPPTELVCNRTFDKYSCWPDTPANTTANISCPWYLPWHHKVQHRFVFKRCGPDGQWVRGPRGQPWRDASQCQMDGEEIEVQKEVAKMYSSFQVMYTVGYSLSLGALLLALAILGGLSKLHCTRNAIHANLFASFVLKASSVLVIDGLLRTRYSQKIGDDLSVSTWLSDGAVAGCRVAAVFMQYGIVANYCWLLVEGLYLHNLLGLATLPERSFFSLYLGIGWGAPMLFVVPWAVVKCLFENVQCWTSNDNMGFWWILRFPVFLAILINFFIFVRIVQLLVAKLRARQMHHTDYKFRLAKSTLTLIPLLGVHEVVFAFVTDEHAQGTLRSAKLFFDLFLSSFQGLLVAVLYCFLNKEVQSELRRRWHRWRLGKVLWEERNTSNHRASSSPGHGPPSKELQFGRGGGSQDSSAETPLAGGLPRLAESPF
Description for glucagon receptor: At the end of the incubation 100 microliters of LucLite luminescence substrate reagent (Perkin-Elmer, Wellesley, Mass.) were added to each well. […] The luminescent light output indicates activation of the luciferase reporter gene, which in turn is a measure of the activation of the receptor.

At hGLP-1R, `CSCC[C@H](NC(=O)[C@H](CC(C)C)NC(=O)[C@H](Cc1c[nH]c2ccccc12)NC(=O)[C@H](CCC(N)=O)NC(=O)[C@@H](NC(=O)[C@H](Cc1ccccc1)NC(=O)[C@H](CC(=O)O)NC(=O)[C@@H](CCC(N)=O)NC(=O)[C@H](C)NC(=O)[C@H](CCCNC(=N)N)NC(=O)[C@H](CCCNC(=N)N)NC(=O)C(C)(C)NC(=O)[C@H](CC(=O)O)NC(=O)[C@H](CC(C)C)NC(=O)[C@H](Cc1ccc(O)cc1)NC(=O)[C@H](CCCCN)NC(=O)[C@H](CO)NC(=O)[C@H](Cc1ccc(O)cc1)NC(=O)[C@H](CC(=O)O)NC(=O)[C@H](CO)NC(=O)[C@@H](NC(=O)[C@H](Cc1ccccc1)NC(=O)[C@@H](NC(=O)CNC(=O)[C@H](CCC(N)=O)NC(=O)[C@H](CO)NC(=O)[C@@H](N)Cc1c[nH]cn1)[C@@H](C)O)[C@@H](C)O)C(C)C)C(=O)N[C@@H](CC(=O)O)C(=O)N[C@@H](CCC(=O)O)C(=O)O` [SEQ ID NO: 981, Aib16, q20, D28, E29] (H-HSQGTFTSDYSKYLD[Aib]RRA[dQ]DFVQWLMDE-OH; N-terminus and C-terminus assumed) showed an EC50 above 10 nM.

The compound `CSCC[C@H](NC(=O)[C@H](CC(C)C)NC(=O)[C@H](Cc1c[nH]c2ccccc12)NC(=O)[C@H](CCC(N)=O)NC(=O)[C@@H](NC(=O)[C@H](Cc1ccccc1)NC(=O)[C@H](CC(=O)O)NC(=O)[C@@H](CCC(N)=O)NC(=O)[C@H](C)NC(=O)[C@H](CCCNC(=N)N)NC(=O)[C@H](CCCNC(=N)N)NC(=O)C(C)(C)NC(=O)[C@H](CC(=O)O)NC(=O)[C@H](CC(C)C)NC(=O)[C@H](Cc1ccc(O)cc1)NC(=O)[C@H](CCCCN)NC(=O)[C@H](CO)NC(=O)[C@H](Cc1cccnc1)NC(=O)[C@H](CC(=O)O)NC(=O)[C@H](CO)NC(=O)[C@@H](NC(=O)[C@H](Cc1ccccc1)NC(=O)[C@@H](NC(=O)CNC(=O)[C@H](CCC(N)=O)NC(=O)[C@H](CO)NC(=O)[C@@H](N)Cc1c[nH]cn1)[C@@H](C)O)[C@@H](C)O)C(C)C)C(=O)N[C@@H](CC(N)=O)C(=O)N[C@H](C(=O)O)[C@@H](C)O` [SEQ ID NO: 971, 3-Pal10, Aib16, q20] showed an EC50 at hGLP-1R above 10 nM.

`CSCC[C@H](NC(=O)[C@H](CC(C)C)NC(=O)[C@H](Cc1c[nH]c2ccccc12)NC(=O)[C@H](CCC(N)=O)NC(=O)[C@@H](NC(=O)[C@H](Cc1ccccc1)NC(=O)[C@H](CC(=O)O)NC(=O)[C@H](CCC(N)=O)NC(=O)[C@H](C)NC(=O)[C@H](CCCNC(=N)N)NC(=O)[C@H](CCCNC(=N)N)NC(=O)C(C)(C)NC(=O)[C@H](CC(=O)O)NC(=O)[C@H](CC(C)C)NC(=O)[C@H](Cc1cccnc1)NC(=O)[C@H](CCCCN)NC(=O)[C@H](CO)NC(=O)[C@H](Cc1ccc(O)cc1)NC(=O)[C@H](CC(=O)O)NC(=O)[C@H](CO)NC(=O)[C@@H](NC(=O)[C@H](Cc1ccccc1)NC(=O)[C@@H](NC(=O)CNC(=O)[C@H](CCC(N)=O)NC(=O)[C@H](CO)NC(=O)[C@@H](N)Cc1c[nH]cn1)[C@@H](C)O)[C@@H](C)O)C(C)C)C(=O)N[C@@H](CC(N)=O)C(=O)N[C@H](C(=O)O)[C@@H](C)O` [Compound 5, HSQGTFTSDYSKXLDZRRAQDFVQWLMNT] showed a solubility at 1 h in the data set “physchem” above 1000 µg/mL. On glucagon receptor (read-out: EC50 [nM] (SDV), luciferase-based glucagon assay, SDV in brackets), the EC50 was 0.0379 nM. At glucagon receptor (relative to native glucagon), the “% bioactivity of GCG” value turned out to be 54%.

A word on the EC50: it is the midpoint of the concentration-response curve. For orientation: solubility means the dissolved amount per volume that the medium holds. Higher therefore signals a readily soluble substance.
